Reference: patent US20250361239A1, “PROTEIN DEGRADERS AND USES THEREOF” (ZHUHAI YUFAN BIOTECHNOLOGIES CO., LTD., priority 2022, published 2025)

Assays:
GSPT1 = molecular target: T1, GSPT1 (Homo sapiens, UniProt P15170+Q96SW2); test: Degradation of GSPT1 by the compounds (HiBiT signal in GSPT1/HEK293 hibit cells); format: cell-based; conditions: 6 h incubation, Nano Glo HiBiT Lytic Detection
T1 construct: host or cells: HEK293
Method: GSPT1/HEK293 hibit cell lines were constructed by Shanghai BioDuro Co., Ltd., HEK293 cell lines were purchased from ATCC (Cat #ATCC® CRL-1573™), DMEM media were purchased from ATCC (Cat #ATCC® 30-2002™), FBS was purchased from Gibco (Cat #10091148), Nano Glo HiBiT Lytic Detection System was purchased from Promega (Cat #N3040), and 96-well plates were purchased from coming (Cat #3610).
The degradation of GSPT1 by the compounds was determined by measuring the intensity of hibit signals in cells. Firstly, the cells were digested with pancreatin, and the digestion was then terminated with medium. The cells were centrifuged, and the supernatant was discarded. The centrifuged cells were resuspended in a fresh complete medium, and the cell density was adjusted to 2.5×10^4 cells/mL. The resuspended cells were inoculated into an opaque 96-well cell culture plate at 100 μL of cell suspension per well, and the cell culture plate was incubated in a cell incubator at 37° C. overnight. The next day, dilutions (20 μL) of compounds with different concentrations were added, and the plate was incubated in a cell incubator for 6 h. After 6 h, 60 μL of Nano Glo HiBiT Lytic Detection System reagent was added and the luminescence values were read on the instrument.
According to the corresponding degradation rate and concentration of each gradient concentration well, a gradient curve of degradation rate was fitted using XLFit software, and the DC50 values of compounds were calculated.

HL60 cells = test: HL60 cell killing experiment (CellTiter-Glo cell viability); format: cell-based; conditions: CTG luminescence
Method: HL60 cell lines were purchased from ATCC (Cat #ATCC® CCL-240™), IMDM media were purchased from ATCC (Cat #ATCC® 30-2005™), FBS was purchased from Gibco (Cat #10091148), celltiter-glo luminescent cell viability assay was purchased from promega (Cat #G7572), and 96-well plates were purchased from corning (Cat #3610).
The effect of compounds on the growth of HL60 cells was determined by measuring cell viability. Firstly, cells in the logarithmic growth phase were collected and centrifuged, and the culture supernatant was discarded. The centrifuged cells were resuspended in a fresh complete medium, and the cell density was adjusted to 5×10^4 cells/mL. The resuspended cells were inoculated into two opaque 96-well cell culture plates at 100 μL of cell suspension per well, and the cell culture plates were incubated in a cell incubator at 37° C. for 4 h. After 4 h, dilutions (20 μL) of compounds with different concentrations were added. After one of the cell plates was cooled to room temperature, 60 μL of CTG reagent was added, and the luminescence values were read on the instrument as G0. The other one was incubated in a cell incubator for 48 h. After 48 h, 60 μL of CTG reagent was added, and the luminescence values were read on the instrument as G3.
According to the corresponding proliferation rate and concentration of each gradient concentration well, a gradient curve of cell proliferation was fitted using XLFit software, and the GI50 values of compounds were calculated.

[1] = Homo sapiens, HL-60, 48 h incubation

T1 sequence (P15170 whole entry): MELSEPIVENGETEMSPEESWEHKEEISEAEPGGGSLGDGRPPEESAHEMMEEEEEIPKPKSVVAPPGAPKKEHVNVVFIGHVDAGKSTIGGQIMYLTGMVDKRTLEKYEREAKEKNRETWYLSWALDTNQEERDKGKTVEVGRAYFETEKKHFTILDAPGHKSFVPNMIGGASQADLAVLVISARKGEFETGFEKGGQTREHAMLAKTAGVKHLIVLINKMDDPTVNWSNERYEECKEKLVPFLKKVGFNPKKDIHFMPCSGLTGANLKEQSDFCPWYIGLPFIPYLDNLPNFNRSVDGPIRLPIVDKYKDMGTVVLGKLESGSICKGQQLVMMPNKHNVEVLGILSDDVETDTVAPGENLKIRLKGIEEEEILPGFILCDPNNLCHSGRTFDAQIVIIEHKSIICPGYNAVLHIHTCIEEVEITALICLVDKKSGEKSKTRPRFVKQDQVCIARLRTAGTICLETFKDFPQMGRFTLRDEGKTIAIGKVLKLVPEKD
T1 sequence (Q96SW2 whole entry): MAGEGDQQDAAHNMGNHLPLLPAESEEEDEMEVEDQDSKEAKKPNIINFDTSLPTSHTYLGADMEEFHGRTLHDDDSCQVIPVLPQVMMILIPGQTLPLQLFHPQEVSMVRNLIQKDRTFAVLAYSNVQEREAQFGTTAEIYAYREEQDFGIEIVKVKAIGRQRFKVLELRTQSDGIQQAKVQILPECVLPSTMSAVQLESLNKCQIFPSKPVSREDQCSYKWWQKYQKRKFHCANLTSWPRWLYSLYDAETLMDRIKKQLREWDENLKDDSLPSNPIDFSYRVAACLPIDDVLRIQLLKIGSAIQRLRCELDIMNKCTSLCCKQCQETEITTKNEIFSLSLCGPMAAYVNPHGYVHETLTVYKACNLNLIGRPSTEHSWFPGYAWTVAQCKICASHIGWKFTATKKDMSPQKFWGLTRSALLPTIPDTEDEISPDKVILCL
T1 sequence (Q16531 whole entry partner): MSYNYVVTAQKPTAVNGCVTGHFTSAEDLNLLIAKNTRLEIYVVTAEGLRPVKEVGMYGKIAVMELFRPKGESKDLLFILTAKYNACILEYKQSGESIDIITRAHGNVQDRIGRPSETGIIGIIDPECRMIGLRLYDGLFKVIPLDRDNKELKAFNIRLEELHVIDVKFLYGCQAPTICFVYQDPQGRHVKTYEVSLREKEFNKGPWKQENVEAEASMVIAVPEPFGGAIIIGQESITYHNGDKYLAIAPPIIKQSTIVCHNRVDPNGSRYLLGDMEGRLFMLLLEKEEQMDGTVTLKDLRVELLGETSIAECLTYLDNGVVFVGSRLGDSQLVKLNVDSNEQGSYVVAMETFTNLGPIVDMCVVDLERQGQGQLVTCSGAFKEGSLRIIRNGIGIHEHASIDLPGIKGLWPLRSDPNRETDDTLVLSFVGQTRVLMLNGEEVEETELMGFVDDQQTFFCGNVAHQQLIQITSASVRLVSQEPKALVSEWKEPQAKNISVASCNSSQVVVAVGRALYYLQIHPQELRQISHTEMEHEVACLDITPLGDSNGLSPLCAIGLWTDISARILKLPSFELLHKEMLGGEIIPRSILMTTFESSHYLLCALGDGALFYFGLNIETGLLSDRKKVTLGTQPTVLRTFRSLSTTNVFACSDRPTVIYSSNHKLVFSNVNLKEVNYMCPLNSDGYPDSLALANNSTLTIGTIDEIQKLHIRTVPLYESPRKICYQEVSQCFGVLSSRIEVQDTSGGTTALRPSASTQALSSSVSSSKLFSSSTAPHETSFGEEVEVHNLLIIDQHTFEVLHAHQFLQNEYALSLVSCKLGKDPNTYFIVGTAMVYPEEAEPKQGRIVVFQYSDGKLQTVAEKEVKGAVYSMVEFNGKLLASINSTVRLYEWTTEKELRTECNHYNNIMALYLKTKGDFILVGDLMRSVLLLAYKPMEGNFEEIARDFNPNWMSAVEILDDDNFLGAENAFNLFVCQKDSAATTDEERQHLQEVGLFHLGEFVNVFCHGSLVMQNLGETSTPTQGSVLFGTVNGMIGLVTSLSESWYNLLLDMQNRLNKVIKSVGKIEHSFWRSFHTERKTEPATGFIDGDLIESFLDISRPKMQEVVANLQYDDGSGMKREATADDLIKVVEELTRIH

DC50 (GSPT1) [nM]	Compound	GI50 (HL60 cells; [1]) [nM]	GI50 (HL60 cells; 48 h incubation) [nM]
< 100	O=C1CCC(N2C(=O)c3cccc(NCc4cccc(C(=O)NC5CCC(c6nsc7ccccc67)CC5)c4)c3C2=O)C(=O)N1 (single isomer, unassigned) [Example 52]	< 100	–
< 100	O=C1CCC(N2C(=O)c3cccc(NCc4cccc(C(=O)NC5CCC(c6nsc7ccccc67)CC5)c4)c3C2=O)C(=O)N1 (single isomer, unassigned) [Example 53]	–	< 100
< 100	O=C1CCC(N2C(=O)c3cccc(NCc4cccc(C(=O)NC5CCCC(F)C5)c4)c3C2=O)C(=O)N1 (stereo not drawn) [Example 1]	< 100	–
< 100	COC1CCCC(NC(=O)c2cccc(CNc3cccc4c3C(=O)N(C3CCC(=O)NC3=O)C4=O)c2)C1 (stereo not drawn) [Example 2]	< 100	–
< 100	O=C1CCC(N2C(=O)c3cccc(NCc4cccc(C(=O)NC5CCCC(F)(F)C5)c4)c3C2=O)C(=O)N1 (stereo not drawn) [Example 3]	–	–
< 100	O=C1CCC(N2C(=O)c3cccc(NCc4cccc(C(=O)NC5CCC(c6ccccc6)CC5)c4)c3C2=O)C(=O)N1 (stereo not drawn) [Example 4]	–	–
< 100	O=C1CCC(N2C(=O)c3cccc(NCCCCC(=O)NC4CCC(c5nc6ccccc6[nH]5)CC4)c3C2=O)C(=O)N1 (stereo not drawn) [Example 5]	< 100	–
< 100	O=C1CCC(N2C(=O)c3cccc(NCCCCC(=O)NC4CCC(c5nc6ccncc6[nH]5)CC4)c3C2=O)C(=O)N1 (stereo not drawn) [Example 6]	< 100	–
< 100	Cn1c(C2CCC(NC(=O)CCCCNc3cccc4c3C(=O)N(C3CCC(=O)NC3=O)C4=O)CC2)nc2ccncc21 (stereo not drawn) [Example 8]	< 100	–
< 100	Cn1c(C2CC(NC(=O)c3cccc(CNc4cccc5c4C(=O)N(C4CCC(=O)NC4=O)C5=O)c3)C2)nc2ccncc21 (stereo not drawn) [Example 9]	–	–
< 100	O=C1CCC(N2C(=O)c3cccc(NCc4cccc(C(=O)NC5CCC(c6cc7ccccc7o6)CC5)c4)c3C2=O)C(=O)N1 (stereo not drawn) [Example 12]	< 100	–
< 100	O=C1CCC(N2C(=O)c3cccc(NCc4cccc(C(=O)NC5CCC(c6coc7ccccc67)CC5)c4)c3C2=O)C(=O)N1 (stereo not drawn) [Example 13]	< 100	–
< 100	O=C1CCC(N2C(=O)c3cccc(NCc4cccc(C(=O)NC5CCC(c6n[nH]c7ccccc67)CC5)c4)c3C2=O)C(=O)N1 (stereo not drawn) [Example 14]	< 100	–
< 100	O=C1CCC(N2C(=O)c3cccc(NCc4cccc(C(=O)NC5CCC(c6n[nH]c7ccccc67)CC5)c4)c3C2=O)C(=O)N1 (stereo not drawn) [Example 15]	–	< 100
< 100	O=C1CCC(N2C(=O)c3cccc(NCc4cccc(C(=O)NC5CCC(c6nc7ccccc7o6)CC5)c4)c3C2=O)C(=O)N1 (stereo not drawn) [Example 17]	–	< 100
< 100	O=C1CCC(N2C(=O)c3cccc(NCc4cccc(C(=O)NC5CCC(c6nc7cccnc7[nH]6)CC5)c4)c3C2=O)C(=O)N1 (stereo not drawn) [Example 18]	< 100	–
< 100	O=C1CCC(N2C(=O)c3cccc(NCc4ccnc(C(=O)NC5CCC(c6nc7ccccc7[nH]6)CC5)c4)c3C2=O)C(=O)N1 (stereo not drawn) [Example 19]	< 100	–
–	O=C1CCC(N2C(=O)c3cccc(NCc4cccc(C(=O)NC5CCC(c6n[nH]c7ccncc67)CC5)c4)c3C2=O)C(=O)N1 (stereo not drawn) [Example 20]	< 100	–
< 100	Cn1c(C2CCC(NC(=O)c3cccc(CNc4cccc5c4C(=O)N(C4CCC(=O)NC4=O)C5=O)n3)CC2)nc2ccncc21 (stereo not drawn) [Example 21]	< 100	–
< 100	O=C1CCC(N2C(=O)c3cccc(NCc4ccnc(C(=O)NC5CCC(c6nc7ccccc7o6)CC5)c4)c3C2=O)C(=O)N1 (stereo not drawn) [Example 22]	< 100	–
< 100	Cn1c(C2CCC(NC(=O)c3cc(CNc4cccc5c4C(=O)N(C4CCC(=O)NC4=O)C5=O)ccn3)CC2)nc2ccncc21 (stereo not drawn) [Example 23]	< 100	–
< 100	Cn1c(C2CCC(NC(=O)c3cc(CNc4cccc5c4C(=O)N(C4CCC(=O)NC4=O)C5=O)ccn3)CC2)nc2ccncc21 (stereo not drawn) [Example 25]	–	< 100
–	O=C1CCC(N2C(=O)c3cccc(NCc4ccnc(NC[C@H]5CC[C@H](c6nc7cccnc7s6)CC5)c4)c3C2=O)C(=O)N1 (stereo partly drawn) [Example 28]	< 100	–

DC50 (GSPT1) [nM]	Compound	GI50 (HL60 cells; [1]) [nM]	GI50 (HL60 cells; 48 h incubation) [nM]
< 100	O=C1CCC(N2C(=O)c3cccc(NCCCCC(=O)NC4CCC(c5nc6c(cnc7[nH]ccc76)[nH]5)CC4)c3C2=O)C(=O)N1 (stereo not drawn) [Example 29]	< 100	–
< 100	Cn1c(C2CCC(NC(=O)c3cccc(CNc4cccc5c4C(=O)N(C4CCC(=O)NC4=O)C5=O)c3)CC2)nc2ccccc21 (stereo not drawn) [Example 33]	< 100	–
–	Cn1c(N2CCC(NC(=O)c3cc(CNc4cccc5c4C(=O)N(C4CCC(=O)NC4=O)C5=O)ccn3)CC2)nc2ccccc21 (stereo not drawn) [Example 41]	< 100	–
–	O=C1CCC(N2C(=O)c3cccc(NCc4cccc(C(=O)NC5CCC(c6csc7ccccc67)CC5)c4)c3C2=O)C(=O)N1 (stereo not drawn) [Example 45]	< 100	–
–	O=C1CCC(N2C(=O)c3cccc(NCc4cccc(C(=O)NC5CCC(c6csc7ccccc67)CC5)c4)c3C2=O)C(=O)N1 (stereo not drawn) [Example 46]	–	< 100
–	O=C1CCC(N2C(=O)c3cccc(NCc4cccc(C(=O)NC5CCC(c6csc7ncccc67)CC5)c4)c3C2=O)C(=O)N1 (stereo not drawn) [Example 54]	< 100	–
–	CN(C[C@H]1CC[C@H](c2nc3cccnc3s2)CC1)c1cc(CNc2cccc3c2C(=O)N(C2CCC(=O)NC2=O)C3=O)ccn1 (stereo partly drawn) [Example 64]	< 100	–
–	Cn1c2ccccc2nc1[C@H]1CC[C@H](N2Cc3ccc(CNc4cccc5c4C(=O)N(C4CCC(=O)NC4=O)C5=O)cc3C2=O)CC1 (stereo partly drawn) [Example 68]	< 100	–
–	Cn1c2ccc(CNc3cccc4c3C(=O)N(C3CCC(=O)NC3=O)C4=O)cc2nc1[C@H]1CC[C@H](c2nc3cccnc3s2)CC1 (stereo partly drawn) [Example 73]	< 100	–
–	Cn1c2cnccc2nc1[C@H]1CC[C@H](C(=O)Nc2cccc(CNc3cccc4c3C(=O)N(C3CCC(=O)NC3=O)C4=O)c2F)CC1 (stereo partly drawn) [Example 78]	< 100	–
–	O=C1CCC(N2C(=O)c3cccc(NCc4cccc5c4CCN5C(=O)[C@H]4CC[C@H](c5nc6cccnc6s5)CC4)c3C2=O)C(=O)N1 (stereo partly drawn) [Example 87]	< 100	–
–	COc1cc2nc(C3CCC(NC(=O)c4cccc(CNc5cccc6c5C(=O)N(C5CCC(=O)NC5=O)C6=O)c4)CC3)n(C)c2cn1 (stereo not drawn) [Example 88]	< 100	–
–	O=C1CCC(N2C(=O)c3cccc(NC4(c5ccnc(C(=O)N[C@H]6CC[C@H](c7nc8cccnc8s7)CC6)c5)CC4)c3C2=O)C(=O)N1 (stereo partly drawn) [Example 92]	< 100	–
–	CN(C)c1ccc2c(c1)nc(C1CCC(NC(=O)c3cccc(CNc4cccc5c4C(=O)N(C4CCC(=O)NC4=O)C5=O)c3)CC1)n2C (stereo not drawn) [Example 102]	< 100	–
–	CN(C)c1cc2c(cn1)nc([C@H]1CC[C@H](C(=O)Nc3cccc(CNc4cccc5c4C(=O)N(C4CCC(=O)NC4=O)C5=O)c3)CC1)n2C (stereo partly drawn) [Example 103]	< 100	–
–	CN(C)c1cc2c(cn1)nc([C@H]1CC[C@H](NC(=O)c3cc(CNc4cccc5c4C(=O)N(C4CCC(=O)NC4=O)C5=O)ccn3)CC1)n2C (stereo partly drawn) [Example 106]	< 100	–
< 100	Cn1c2cc(N)ccc2nc1[C@H]1CC[C@H](NC(=O)c2cc(CNc3cccc4c3C(=O)N(C3CCC(=O)NC3=O)C4=O)ccn2)CC1 (stereo partly drawn) [Example 131]	–	–
< 100	COc1ccc(CNc2cccc3c2C(=O)N(C2CCC(=O)NC2=O)C3=O)cc1C(=O)N[C@H]1CC[C@H](c2nc3cc(N)cnc3s2)CC1 (stereo partly drawn) [Example 132]	–	–
< 100	COc1ccc(CNc2cccc3c2C(=O)N(C2CCC(=O)NC2=O)C3=O)cc1C(=O)N[C@H]1CC[C@H](c2nc3cc(N)ccc3s2)CC1 (stereo partly drawn) [Example 133]	–	–
< 100	COc1ncc(CNc2cccc3c2C(=O)N(C2CCC(=O)NC2=O)C3=O)cc1C(=O)N[C@H]1CC[C@H](c2nc3cccnc3s2)CC1 (stereo partly drawn) [Example 134]	–	–
< 100	O=C1CCC(N2Cc3c(OCc4ccnc(NC[C@H]5CC[C@H](c6nc7cccnc7s6)CC5)c4)cccc3C2=O)C(=O)N1 (stereo partly drawn) [Example 135]	–	–
< 100	COc1ccc2nc([C@H]3CC[C@H](CNc4cc(COc5cccc6c5CN(C5CCC(=O)NC5=O)C6=O)ccn4)CC3)sc2n1 (stereo partly drawn) [Example 136]	–	–
< 100	COc1ccc2nc([C@H]3CC[C@H](CNc4cc(CNc5cccc6c5C(=O)N(C5CCC(=O)NC5=O)C6=O)ccn4)CC3)sc2n1 (stereo partly drawn) [Example 137]	–	–
